In patent US20050261478A1, “Compositions and methods for regulating lymphocyte activation” (XCYTE Therapies, Inc., priority 1998, published 2005):
Values belong to the molecule of their own block, whether it stands above or below them. Bridge positions count the residues as written; N and C are the ends. Peptide text beside a SMILES is read from it.

Key:
CD3ε δIg = target: T1, CD3ε δIg (Homo sapiens, UniProt P04234+P07766); test: BIACORE binding of CDR3 peptides; details: peptides cyclized and characterized as pools of 3-5, CD3ε δhuIg impure mixture, nd = non detectable binding, read-out: Binding Affinity, CD3ε δIg
T1 construct: made in house; host or cells: COS-7 (transient, DEAE-dextran); purified on protein A-Sepharose
T1 sequence (P07766 23-126): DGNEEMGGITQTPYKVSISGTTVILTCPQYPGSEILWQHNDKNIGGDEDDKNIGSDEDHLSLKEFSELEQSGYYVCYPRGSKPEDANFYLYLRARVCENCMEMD
T1 sequence (P04234 22-100): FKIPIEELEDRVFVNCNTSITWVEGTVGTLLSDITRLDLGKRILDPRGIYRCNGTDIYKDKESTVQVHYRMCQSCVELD
Protocol: (§1) Peptides corresponding to the entire CDR3 regions of anti-CD3 and […] mAbs were synthesized, and Tyr/Phe-Cysteine residues were added to both amino and carboxyl termini. Modifications of peptides were made by eliminating one amino acid of the CDR3 region at a time from the terminus. Peptide synthesis was carried out on solid phase by using Fmoc chemistry (HBTU/DIEA activation and TFA cleavage). Crude peptides were combined in a batch of 3-5 peptides and cyclized by air oxidation at pH 8.5. Crude cyclic peptides were purified on a reverse phase HPLC, lyophilized and characterized by analytical HPLC and mass spectroscopy.
(§2) BIACORE uses surface plasmon resonance (SPR) which occurs when surface plasmon waves are excited at a metal/liquid interface. Light is directed at, and reflected due to bimolecular interactions between analyte (in solution) and ligand (immobilized). CD3εδhuIg, CD3εεhuIg and CD28huIg were covalently immobilized on a carboxymethy dextran chip using EDC/NHS chemistry followed by blocking with ethanol amine. Peptides were dissolved in HBS buffer at pH 7.2 with or without 1% DMSO, and were allowed to pass over these fusion protein-immobilized surfaces. Non-specific binding was substrated by passing these peptides over a controlled surface prepared by immobilizing EDC/NHS alone followed by ethanolamine.

G19-4 anti-CD3 mAb = test: ELISA of CD3-Ig fusion proteins captured by immobilized anti-CD3 mAb; format: binding; details: up to 100 μg/ml fusion protein
Excerpt: Transient expression in COS-7 cells was used to generate different CD3-Ig fusion proteins. The plasmids phCD3ε-Ig, and phCD3γ-Ig were transfected individually or in combinations of phCD3ε-Ig+phCD3δ-Ig and phCD3ε-Ig+phCD3γ-Ig into COS-7 by the DEAE-dextran method. Transfected cells were maintained in medium supplemented with a low concentration, 0.5%, FBS and insulin. Spent media were collected in three-day intervals up to three weeks post transfection. Fusion proteins were then purified from spent media by protein A-Sepharose chromatography. Fusion protein expression was confirmed by SDS-PAGE and ELISA using anti-CD3 mAb.
CD3-Ig fusion proteins were characterized by ELISA using a number of anti-CD3 mAbs including G19-4, OKT3, BC3, and 64.1 Anti-CD3 mAbs were immobilized to capture CD3-Ig. An antibody-horseradish peroxidase conjugate specific against human IgG […] was used to detect the binding of CD3-Ig to anti-CD3 mAbs. Like the control CD4-Ig, no binding of CD3δ-Ig to G19-4 was detectable even at 100 μg/ml of the fusion protein (FIG. 20). […] and […] saturated at 4 μg/ml and 20 μg/ml in this assay, respectively. […] In addition, binding affinities of the CD3-Ig fusion proteins to different anti-CD3 antibodies were measured by BIACORE, and the results are shown in Table IV. […]

CD8^+ T cells = test: Proliferation of purified T cell subsets with immobilized antibodies; format: cell-based, human; details: antibodies immobilized on microtiter plates, 4 days
Protocol: (§3) T cells were isolated from peripheral blood by centrifugation on “FICOLL”, followed by separation into CD4^+ or CD8^+ subsets by depletion of monocytes, B cells, NK cells, and either CD4 or CD8 cells. Cell depletion was performed using mAbs to CD14, CD20, CD11b, and CD8 or CD4 followed by removal of antibody-bound cells using magnetic beads coated with anti-mouse IgG CD4^+ or CD8^+ T cells were >95% pure after the depletion step when analyzed by flow cytometry. Cells were cultured in antibody-coated microtiter plates at 5×10^4 for 4 days, and proliferation was measured by incorporation of ^3H-thymidine for the final 12 hours of culture. Microtiter plates contained immobilized antibodies as indicated, including the control, nonbinding L20 antibody in some wells to equalize the total protein concentration for immobilization. Antibodies were immobilized by incubation at 10 μg/ml each for 18 hr at 37° C., followed by removal of unbound protein by extensive washing.

CD4^+ T cells = test: as above; format: cell-based, human; details: antibodies immobilized on microtiter plates, 4 days
Protocol: as §3

CD28Ig = target: T2, CD28Ig (Homo sapiens, UniProt P10747); test: BIACORE binding of CDR3 peptides; details: peptides cyclized and characterized as pools of 3-5, nd = non detectable binding, read-out: Binding Affinity, CD28Ig
T2 construct: human Ig (huIg) fusion partner
T2 sequence (P10747 19-152 limits assumed): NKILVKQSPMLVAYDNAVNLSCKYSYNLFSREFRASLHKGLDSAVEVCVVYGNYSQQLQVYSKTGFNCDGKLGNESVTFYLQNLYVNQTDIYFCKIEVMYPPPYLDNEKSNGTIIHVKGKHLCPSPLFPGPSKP
Protocol: as §1, §2

Molecule: NCCCC[C@@H]1NC(=O)[C@H](Cc2c[nH]c3ccccc23)NC(=O)[C@H](CC(=O)O)NC(=O)[C@H](Cc2ccccc2)NC(=O)[C@@H](NC(=O)[C@@H](N)Cc2ccc(O)cc2)CSSC[C@@H](C(=O)N[C@@H](Cc2ccc(O)cc2)C(=O)O)NC(=O)[C@H](CC(N)=O)NC1=O [YCFDWKNCY (SEQ ID NO:80)] (H-YCFDWKNCY-OH; disulfide 2-8; N-terminus and C-terminus assumed)
Kd (CD3ε δIg): 0.5 µM

Molecule: N[C@@H](Cc1ccc(O)cc1)C(=O)N[C@H]1CSSC[C@@H](C(=O)N[C@@H](Cc2ccc(O)cc2)C(=O)O)NC(=O)CNC(=O)[C@H](CC(=O)O)NC(=O)[C@H](Cc2ccc(O)cc2)NC(=O)[C@H](CC(=O)O)NC(=O)[C@H](Cc2ccc(O)cc2)NC1=O [YCYDYDGCY (SEQ ID NO:75)] (H-YCYDYDGCY-OH; disulfide 2-8; N-terminus and C-terminus assumed)
Kd (CD3ε δIg): 10 µM

Molecule: CD3ε-Ig: CD3ε extracellular domain fused to human IgG1 hinge-CH2-CH3
Binding of CD3-Ig fusion protein to G19-4 (G19-4 anti-CD3 mAb): detectable

Molecule: OKT-3: MAb anti-CD3, obtained from ATCC (ATCC CRL-8001)
Proliferation of CD8^+ T cells (CD8^+ T cells): minimal
Proliferation of CD4^+ T cells (CD4^+ T cells): minimal

B1: CD3γ-Ig: CD3γ extracellular domain fused to human IgG1 hinge-CH2-CH3 (protein)
chain: QSIKGNHLVKVYDYQEDGSVLLTCDAEAKNITWFKDGKMIGFLTEDKKKWNLGSNAKDPRGMYQCKGSQNKSKPLQVYYRMCQNCIELNAATIS
modifications: left off: a dimerising Fc or GST
notes: CD3γ extracellular domain fused to human IgG1 hinge-CH2-CH3
Binding of CD3-Ig fusion protein to G19-4 (G19-4 anti-CD3 mAb): detectable

Now from value to molecule:

Kd (CD3ε δIg): 50 µM
Molecule: YCARDSDWYFDVCW [cyclized peptide derived from CDR3 region of an anti-CD3 or anti-CD28 mAb]

Kd (CD28Ig): 1 µM
Molecule: YCGYSYYYSMDYCW [cyclized peptide derived from CDR3 region of an anti-CD3 or anti-CD28 mAb]

Kd (CD3ε δIg): 7 µM
Kd (CD28Ig): 166 µM
Molecule: YCRSAYYDYDGIAYCW [cyclized peptide derived from CDR3 region of an anti-CD3 or anti-CD28 mAb]
